From publication PMC2747801 (European journal of pharmaceutical sciences : official …, 2009)
Read-outs that look alike come from different tables or passages of the source.

Experiments:
[1] = cited from earlier work
[2] = cited from earlier work; remark: listed apart in the source
[3] = cited from earlier work; remark: listed apart in the source
[4] = male, mouse, pH 7.4; for logPS(obs): in vivo
[5] = rat, Kd (nonsaturable component) ref Momma et al. 1987
[6] = rat, Kd (nonsaturable component) ref Smith et al. 1986
[7] = rat, 5-50uM self-inhibition, test set ref Summerfield et al. 2007
[8] = PAMPA intrinsic permeability, ref Ruell et al. 2004
[9] = rat, 5-50uM self-inhibition, training set ref Summerfield et al. 2007
[10] = rat, test set ref Gratton et al. 1997
[11] = rat, not saturable ref Parepally et al. 2006
[12] = rat, PSC833,GF120918 ref Youdim et al. 2004

NC1(C(=O)O)CCCCC1 [1-aminocyclohexanecarboxylic acid]
logPS(obs) ([1]; rat, Kd (nonsaturable component) ref Aoyagi et al. 1988): −4.00 mL/g/s

Nc1c(O)cccc1C(=O)CC(N)C(=O)O (stereo not drawn) [3-hydroxykynurenine]
logPS(obs) ([1]; rat, Kd (nonsaturable component) ref Fukui et al. 1991): −4.49 mL/g/s

Cc1c(N2C[C@@H](N)C3(CC3)C2)c(F)c(N)c2c(=O)c(C(=O)O)cn(C3CC3)c12 [HSR-903]
logPS(obs) ([1]; rat, 20 mM self-inhibition ref Murata et al. 1999): −3.14 mL/g/s

Nc1ccccc1C(=O)C[C@H](N)C(=O)O [L-kynurenine]
logPS(obs) [1, 5]: −4.16 mL/g/s

CC(C)C[C@H](N)C(=O)O [L-leucine]
logPS(obs) [1, 6]: −4.08 mL/g/s

N[C@@H](Cc1ccccc1)C(=O)O [L-phenylalanine]
logPS(obs) [1, 5]: −3.74 mL/g/s | logPo^PAMPA: −5.36

CC(C)[C@H](N)C(=O)O [L-valine]
logPS(obs) [1, 6]: −4.41 mL/g/s

Clc1ccc2c(c1)C(N1CCNCC1)=Nc1ccccc1O2 [amoxapine]
logPS(obs) [1, 7]: −1.18 mL/g/s

Cc1cc(=O)n(-c2ccccc2)n1C [antipyrine]
logPo^PAMPA ([2]; PAMPA): −5.69

CNCC[C@@H](Oc1ccccc1C)c1ccccc1 [atomoxetine]
logPS(obs) [1, 7]: −1.39 mL/g/s

CCC12CCN(CC3(O)CC3)C(Cc3ccc(O)cc31)C2(C)C (stereo not drawn) [bremazocine]
logPS(obs) ([3]; mouse, in vivo): −1.89 mL/g/s | logPo^PAMPA: −1.49

COc1cc2c(c(OC)c1OC)-c1ccc(OC)c(=O)cc1[C@@H](NC(C)=O)CC2 [colchicine]
logPS(obs) ([1]; rat, in vivo): −3.24 mL/g/s | logPo^PAMPA: −5.40

CC(C)[C@H](NC(=O)[C@H](CCC(=O)O)NC(=O)[C@H](Cc1ccccc1)NC(=O)[C@@H](C)NC(=O)[C@@H](N)Cc1ccc(O)cc1)C(=O)N[C@H](C(=O)NCC(N)=O)C(C)C [deltorphin II]
logPS(obs) ([3]; mouse, in vivo): −4.36 mL/g/s | logPo^PAMPA: −6.37

COc1ccc([C@@H]2Sc3ccccc3N(CCN(C)C)C(=O)[C@@H]2OC(C)=O)cc1 [diltiazem]
logPo^PAMPA ([2]; PAMPA intrinsic permeability, ref Avdeef et al. 2005): −1.33

O=c1[nH]c2ccccc2n1CCCN1CCC(n2c(=O)[nH]c3cc(Cl)ccc32)CC1 [domperidone]
logPS(obs) [4]: −2.79 mL/g/s | logPo^PAMPA: −2.78

CN(C)CCC=C1c2ccccc2COc2ccccc21 [doxepin]
logPo^PAMPA [2, 8]: 0.44 | logPS(obs) [1, 9]: −1.31 mL/g/s

CN1C[C@H](C(=O)N[C@]2(C)O[C@@]3(O)[C@@H]4CCCN4C(=O)[C@H](Cc4ccccc4)N3C2=O)C=C2c3cccc4[nH]cc(c34)C[C@H]21 [ergotamine]
logPS(obs) ([1]; rat, in vivo): −2.06 mL/g/s

OC[C@@H](O)[C@@H](O)CO [erythritol]
logPS(obs) [1, 10]: −4.57 mL/g/s

C[C@]12CC[C@@H]3c4ccc(O)cc4CC[C@H]3[C@@H]1CC[C@@H]2O [estradiol]
logPo^PAMPA: −3.08

CCC1(C)CC(=O)NC1=O (stereo not drawn) [ethosuximide]
logPS(obs) [1, 7]: −2.47 mL/g/s

OCCO [ethylene glycol]
logPS(obs) ([1]; rat, in vivo): −2.99 mL/g/s

COc1cc([C@@H]2c3cc4c(cc3[C@@H](O[C@@H]3O[C@@H]5CO[C@@H](C)O[C@H]5[C@H](O)[C@H]3O)[C@H]3COC(=O)[C@H]23)OCO4)cc(OC)c1O [etoposide]
logPS(obs) ([3]; mouse, mdr1a(−/−), footnote x ref Cisternino et al. 2003): −3.91 mL/g/s | logPo^PAMPA: −5.22

OCCN1CCN(CCCN2c3ccccc3Sc3ccc(C(F)(F)F)cc32)CC1 [fluphenazine]
logPS(obs) [1, 7]: −1.87 mL/g/s

CC(C(=O)O)c1ccc(-c2ccccc2)c(F)c1 (stereo not drawn) [flurbiprofen]
logPo^PAMPA [2, 8]: −1.78 | logPS(obs) [1, 11]: −1.80 mL/g/s

O=C(CCCN1CCC(O)(c2ccc(Cl)cc2)CC1)c1ccc(F)cc1 [haloperidol]
logPo^PAMPA ([2]; PAMPA intrinsic permeability, ref Avdeef et al. 2006): 0.05

OCCOCCN1CCN(C(c2ccccc2)c2ccc(Cl)cc2)CC1 (stereo not drawn) [hydroxyzine]
logPo^PAMPA: −1.50

CC(C)Cc1ccc(C(C)C(=O)O)cc1 (stereo not drawn) [ibuprofen]
logPo^PAMPA ([2]; PAMPA intrinsic permeability, ref Ruell et al. 2004, Ruell et al. 2003): −2.11

COc1ccc2c(c1)c(CC(=O)O)c(C)n2C(=O)c1ccc(Cl)cc1 [indomethacin]
logPo^PAMPA ([2]; PAMPA intrinsic permeability, ref Avdeef et al. 2004, Ruell et al. 2004): −1.65 | logPS(obs) [1, 11]: −2.19 mL/g/s

Nc1nnc(-c2cccc(Cl)c2Cl)c(N)n1 [lamotrigine]
logPS(obs) [1, 7]: −2.67 mL/g/s

CN(C)C(=O)C(CCN1CCC(O)(c2ccc(Cl)cc2)CC1)(c1ccccc1)c1ccccc1 [loperamide]
logPo^PAMPA: 0.15

OC[C@@H](O)[C@@H](O)[C@H](O)[C@H](O)CO [mannitol]
logPS(obs) [1, 10]: −5.01 mL/g/s

CNCCCC12CCC(c3ccccc31)c1ccccc12 [maprotiline]
logPo^PAMPA [2, 8]: 1.99 | logPS(obs) [1, 9]: −1.37 mL/g/s

N[C@@H](Cc1ccc(N(CCCl)CCCl)cc1)C(=O)O [melphalin]
logPS(obs) ([1]; rat, in vivo): −3.28 mL/g/s

CCOC(=O)C1(c2ccccc2)CCN(C)CC1 [meperidine]
logPS(obs) ([3]; mouse, in vivo): −1.28 mL/g/s | logPo^PAMPA: 0.79

CCCC(C)(COC(N)=O)COC(N)=O [meprobamate]
logPS(obs) [1, 7]: −3.09 mL/g/s

CN1CCCCC1CCN1c2ccccc2Sc2ccc([S+](C)[O-])cc21 (stereo not drawn) [mesoridazine]
logPS(obs) [1, 7]: −1.81 mL/g/s

CCC(=O)C(CC(C)N(C)C)(c1ccccc1)c1ccccc1 (stereo not drawn) [methadone]
logPo^PAMPA: 0.08

Cc1ncc2n1-c1ccc(Cl)cc1C(c1ccccc1F)=NC2 [midazolam]
logPS(obs) ([1]; rat, in vivo): −1.17 mL/g/s

CN1CCN2c3ncccc3Cc3ccccc3C2C1 (stereo not drawn) [mirtazapine]
logPS(obs) [1, 7]: −1.39 mL/g/s

Oc1ccc2c3c1O[C@H]1c4[nH]c5ccccc5c4C[C@@]4(O)[C@@H](C2)N(CC2CC2)CC[C@]314 [naltrindole]
logPS(obs) ([3]; mouse, in vivo): −1.98 mL/g/s | logPo^PAMPA: −0.94

O=C1C[C@@H](c2ccc(O)cc2)Oc2cc(O)cc(O)c21 [naringenin]
logPS(obs) [1, 12]: −2.60 mL/g/s | logPo^PAMPA: −3.71

CCCN1C[C@H](CSC)C[C@@H]2c3cccc4[nH]cc(c34)C[C@H]21 [pergolide]
logPS(obs) [1, 7]: −1.00 mL/g/s

OCCN1CCN(CCCN2c3ccccc3Sc3ccc(Cl)cc32)CC1 [perphenazine]
logPS(obs) [1, 9]: −1.27 mL/g/s | logPo^PAMPA: 0.81

NNCCc1ccccc1 [phenelzine]
logPS(obs) [1, 7]: −2.67 mL/g/s

COc1cc2nc(N3CCN(C(=O)c4ccco4)CC3)nc(N)c2cc1OC [prazosin]
logPo^PAMPA [2, 8]: −2.58

O=c1c(O)c(-c2ccc(O)c(O)c2)oc2cc(O)cc(O)c12 [quercetin]
logPS(obs) [1, 12]: −3.50 mL/g/s | logPo^PAMPA: −4.77

OCCOCCN1CCN(C2=Nc3ccccc3Sc3ccccc32)CC1 [quetiapine]
logPS(obs) [1, 9]: −1.33 mL/g/s | logPo^PAMPA: −1.85

Cc1nc2n(c(=O)c1CCN1CCC(c3noc4cc(F)ccc34)CC1)CCCC2 [risperidone]
logPo^PAMPA: −2.01

CC(C)c1nc(CN(C)C(=O)N[C@H](C(=O)N[C@@H](Cc2ccccc2)C[C@H](O)[C@H](Cc2ccccc2)NC(=O)OCc2cncs2)C(C)C)cs1 [ritonavir]
logPS(obs) [4]: −2.59 mL/g/s | Pgp Mutant Kin [4]: 15 mL/100g/min | logPo^PAMPA: −1.68

CN(C)CCc1c[nH]c2ccc(Cn3cncn3)cc12 [rizatriptan]
logPS(obs) [1, 7]: −3.76 mL/g/s

O=C(O)c1ccccc1O [salicylic acid]
logPo^PAMPA ([2]; PAMPA intrinsic permeability, ref Ruell et al. 2003): −2.64

OC[C@H]1O[C@@](CO)(O[C@H]2O[C@H](CO)[C@@H](O)[C@H](O)[C@H]2O)[C@@H](O)[C@@H]1O [sucrose]
logPS(obs) [1, 10]: −5.30 mL/g/s

CNS(=O)(=O)Cc1ccc2[nH]cc(CCN(C)C)c2c1 [sumatriptan]
logPo^PAMPA ([2]; PAMPA intrinsic permeability, ref Avdeef 2005): −4.18 | logPS(obs) [1, 9]: −4.60 mL/g/s

C[C@]12CC[C@H]3[C@@H](CCC4=CC(=O)CC[C@@]43C)[C@@H]1CC[C@@H]2O [testosterone]
logPo^PAMPA: −2.83

CSc1ccc2c(c1)N(CCC1CCCCN1C)c1ccccc1S2 (stereo not drawn) [thioridazine]
logPS(obs) [1, 9]: −1.37 mL/g/s | logPo^PAMPA: 1.81

NC(N)=S [thiourea]
logPS(obs) [1, 10]: −3.36 mL/g/s

Cc1ccsc1C(=CCCN1CCC[C@@H](C(=O)O)C1)c1sccc1C [tiagabine]
logPS(obs) [1, 9]: −2.46 mL/g/s

O=c1n(CCCN2CCN(c3cccc(Cl)c3)CC2)nc2ccccn12 [trazodone]
logPS(obs) [1, 7]: −1.47 mL/g/s

CN1CCN(CCCN2c3ccccc3Sc3ccc(C(F)(F)F)cc32)CC1 [trifluoperazine]
logPS(obs) [1, 7]: −1.88 mL/g/s

COc1ccc(C(CN(C)C)C2(O)CCCCC2)cc1 (stereo not drawn) [venlafaxine]
logPS(obs) ([1]; rat, in vivo): −1.98 mL/g/s

CC[C@]1(O)C[C@@H]2CN(CCc3c([nH]c4ccccc34)[C@@](C(=O)OC)(c3cc4c(cc3OC)N(C)[C@H]3[C@@](O)(C(=O)OC)[C@H](OC(C)=O)[C@]5(CC)C=CCN6CC[C@]43[C@@H]65)C2)C1 [vinblastine]
logPS(obs) ([3]; mouse ref Murakami et al. 2000): −3.32 mL/g/s | logPS(obs) ([3]; mouse, GF120918, footnote v ref Cisternino et al. 2004): −3.25 mL/g/s | logPS(obs) ([3]; mouse, mdr1a(−/−)+GF120918 ref Cisternino et al. 2001): −3.12 mL/g/s | logPS(obs) ([1]; rat ref Greig et al. 1990): −3.27 mL/g/s | logPS(obs) ([1]; rat, PSC833 ref Cisternino et al. 2003): −3.36 mL/g/s | logPo^PAMPA: −0.42

CC(=O)CC(c1ccccc1)c1c(O)c2ccccc2oc1=O (stereo not drawn) [warfarin]
logPS(obs) ([3]; mouse, in vivo): −2.10 mL/g/s | logPS(obs) ([1]; rat, in vivo): −1.99 mL/g/s

CCN(C(C)=O)c1cccc(-c2ccnc3c(C#N)cnn23)c1 [zaleplon]
logPS(obs) ([1]; rat, in vivo): −2.25 mL/g/s

O=C1Cc2cc(CCN3CCN(c4nsc5ccccc45)CC3)c(Cl)cc2N1 [ziprasidone]
logPS(obs) [1, 7]: −1.73 mL/g/s
